# Test results taken from US9029414B2, “Triterpenoid compounds and methods of use thereof” (Biotechnology Research Corporation, priority 2008, dated 2015).
# Columns and labels:
# cortical neurons = test: Cortical neuron survival assay against NMDA excitotoxicity (LDH); assay type: cell-based, Sprague-Dawley rats; settings: 30 μM 24 hrs, NMDA 10-200 μM 20 min; at high concentrations of NMDA
# Experimental: FIG. 12. Derivatives of DA001 rescue the cortical neurons from NMDA excitotoxicity. Cortical neurons were treated with compounds derived from of DA001 (30 μM) 24 hours prior to NMDA treatment. LDH released into the medium were measured 24 hours after NMDA treatment. Data are expressed as mean±s.e.m. and compared to solvent control (DMSO). *=P<0.05.
# Hippocampal neurons/cortical neurons were prepared from embryonic day 18 Sprague-Dawley rats. […] Afterwards, cells were incubated in growth medium for 18-24 hours and detected with Cytotoxicity Detection Kit (1644793, Roche).
# Cortical neurons were treated with DA021 or DA034 and subsequently subjected to varying concentrations of NMDA. […] LDH release into the medium was then measured.
# Compounds with strong protective effect (>80% survival) against NMDA excitotoxicity are prototype DA001, derivatives DA010, DA021, DA034, DA040, DA081 and DA088. […] LDH released into the medium were measured 24 hours after NMDA treatment. Data are expressed as averaged percentage of cell survival (±s.e.m) calculated against solvent control (DMSO) and compared to no NMDA control (set as 100% survival). […]
# TP receptor = TP receptor (Homo sapiens, UniProt P21731); test: Radioligand competition binding assay, TP; settings: target Thromoboxanes A, compound at 10 μM in duplicate, read-out: % inhibition of control specific binding
# TP receptor, sequence (P21731 whole entry): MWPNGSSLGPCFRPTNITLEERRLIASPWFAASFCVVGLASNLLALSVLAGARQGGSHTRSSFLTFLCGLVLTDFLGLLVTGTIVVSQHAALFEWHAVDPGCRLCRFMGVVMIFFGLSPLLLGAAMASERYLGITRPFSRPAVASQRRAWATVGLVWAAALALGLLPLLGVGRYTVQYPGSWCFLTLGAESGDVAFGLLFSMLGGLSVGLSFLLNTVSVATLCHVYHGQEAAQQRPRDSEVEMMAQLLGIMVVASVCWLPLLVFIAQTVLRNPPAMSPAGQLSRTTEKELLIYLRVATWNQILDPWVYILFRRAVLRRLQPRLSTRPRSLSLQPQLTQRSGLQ
# Experimental: (§1) DA001 was further evaluated against 32 receptor binding assays. Radioligand competition assays were conducted whereby DA001 was tested at one concentration (10 uM) in duplicate. […] It could compete with the radioligand [^3H] PGE2 binding at the EP1 and EP4 receptors, and weakly competed with the EP2 and FP receptors.
# (§2) To determine the targets of DA compounds, the compound was assessed in binding assays for the family of prostanoid receptors. Both compounds were tested at a single concentration (10 μM) in duplicate. DA001 and DA021 inhibit the ligand binding of prostaglandin E2 receptors EP1, EP2 and EP4 and moderately to prostaglandin (PGF) to its receptor (FP), but not prostaglandin I (PGI2), thromoboxane A and prostaglandin D2 to their receptors.
# EP2 receptor = EP2 receptor (Homo sapiens, UniProt P43116); test: Radioligand competition binding assay, EP2; settings: EP2, target PGE2; compound at 10 μM in duplicate; read-out: % inhibition of control specific binding
# EP2 receptor, sequence (P43116 whole entry): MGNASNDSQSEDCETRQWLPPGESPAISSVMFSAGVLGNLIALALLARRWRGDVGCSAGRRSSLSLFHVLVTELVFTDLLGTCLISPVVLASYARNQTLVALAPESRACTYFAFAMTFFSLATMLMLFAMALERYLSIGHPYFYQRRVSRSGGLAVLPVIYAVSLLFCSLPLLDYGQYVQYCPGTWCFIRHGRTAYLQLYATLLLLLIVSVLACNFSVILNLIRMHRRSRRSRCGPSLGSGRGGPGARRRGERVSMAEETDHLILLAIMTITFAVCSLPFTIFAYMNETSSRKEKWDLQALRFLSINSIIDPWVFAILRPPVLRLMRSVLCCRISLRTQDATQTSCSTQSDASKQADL
# Experimental: as §1, §2
# IP receptor = IP receptor (Homo sapiens, UniProt P43119); test: Radioligand competition binding assay, IP; settings: target PGI, compound at 10 μM in duplicate, read-out: % inhibition of control specific binding
# IP receptor, sequence (P43119 whole entry): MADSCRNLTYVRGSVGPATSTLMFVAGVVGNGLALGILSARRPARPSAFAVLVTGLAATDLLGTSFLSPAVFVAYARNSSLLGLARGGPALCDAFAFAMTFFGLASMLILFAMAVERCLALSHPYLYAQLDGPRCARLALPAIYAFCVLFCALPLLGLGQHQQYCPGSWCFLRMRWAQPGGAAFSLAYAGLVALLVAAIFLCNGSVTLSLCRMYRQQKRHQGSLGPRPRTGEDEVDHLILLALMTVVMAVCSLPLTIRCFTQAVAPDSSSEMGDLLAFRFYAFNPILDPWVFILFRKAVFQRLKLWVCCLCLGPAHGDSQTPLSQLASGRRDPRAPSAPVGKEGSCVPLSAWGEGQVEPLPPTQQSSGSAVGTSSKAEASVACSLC
# Experimental: as §1, §2
SMILES,cell death (LDH release) vs DMSO control (cortical neurons),inhibition at 10 µM (TP receptor),inhibition at 10 µM (EP2 receptor),inhibition at 10 µM (IP receptor)
CC(=O)OC[C@]12CC[C@@H](C3(C)CO3)C1C1CCC3[C@@]4(C)CC[C@H](O)[C@@](C)(CO)[C@@H]4CC[C@@]3(C)[C@]1(C)CC2 (some centres unmarked) [DA034],significant reduction in cell death,,,
C=C(C)[C@@H]1CC[C@]2(/C=N/O)CC[C@]3(C)C(CCC4[C@@]5(C)CCC(=O)[C@@](C)(CO)[C@@H]5CC[C@]43C)C12 (some centres unmarked) [DA021],significant reduction in cell death,17%,42%,9%
"C=C(C)[C@@H]1CC[C@]2(C(=O)O)CC[C@]3(C)C(CC[C@@H]4[C@@]5(C)CC[C@H](O[C@@H]6OC[C@H](O)[C@H](O)[C@H]6O[C@@H]6O[C@@H](C)[C@H](O)[C@@H](O)[C@H]6O)[C@@](C)(CO)[C@@H]5CC[C@]43C)[C@@H]12 (stereo partly drawn) [DA001, 3-O-[α-L-rhamnopyranosyl-(1→2)-α-L-arabinopyranosyl]-3,23-dihydroxy-20(29)-lupen-28-oic acid]",,17%,31%,0%
